Results on two compounds are retold here after the NIST ThermoML archive (doi:10.1016/j.jct.2013.12.010).

The structures appear in SMILES notation.

A short description of the series: cn = amount concentration of the nth substance listed, in mol/dm3. The following applies: 298.15 K, 101 kPa, Liquid, Taylor dispersion method.

Consider `N[C@@H](Cc1ccc(O)c(O)c1)C(=O)O` [L-3,4-dihydroxyphenylalanine] + O, for which the binary diffusion coefficient (c1 = 0.005) was determined as 6.2e-10 m2/s.
Take `Cl` [hydrogen chloride] + O: the binary diffusion coefficient by setting is: (c1 = 0.005) 2.99e-09 m2/s; (c1 = 0.1) 2.9e-09 m2/s.
